How the values were obtained:
[1] = tested on: SR; experiment: Cytotoxicity against human SR cells assessed as growth inhibition after 48 hrs by sulforhodamine B assay; type: functional; settings: for CC50: read-out: LC50 (the source's name)
[2] = tested on: HL-60(TB); experiment: Cytotoxicity against human HL-60(TB) cells assessed as cell growth at 100 uM after 48 hrs by sulforhodamine B assay relative to control; type: functional; settings: HL-60, 48 h, read-out: Activity
[3] = tested on: 786-0; experiment: Cytotoxicity against human 786-0 cells assessed as cell growth at 100 uM after 48 hrs by sulforhodamine B assay relative to control; type: functional; settings: 786-0, 48 h, read-out: Activity
[4] = tested on: SF-539; experiment: Cytotoxicity against human SF539 cells assessed as growth inhibition after 48 hrs by sulforhodamine B assay; type: functional; settings: SF-539, 48 h
[5] = tested on: SK-MEL-2; experiment: Cytotoxicity against human SK-MEL-2 cells assessed as growth inhibition after 48 hrs by sulforhodamine B assay; type: functional; settings: SK-MEL-2, 48 h
[6] = tested on: M14; experiment: Cytotoxicity against human M14 cells assessed as cell growth at 0.1 uM after 48 hrs by sulforhodamine B assay relative to control; type: functional; settings: M14, 48 h, read-out: Activity
[7] = tested on: BT-549; experiment: Cytotoxicity against human BT549 cells assessed as cell growth at 0.01 uM after 48 hrs by sulforhodamine B assay relative to control; type: functional; settings: BT-549, 48 h, read-out: Activity
[8] = tested on: SN12C; experiment: Cytotoxicity against human SN12C cells assessed as cell growth at 0.01 uM after 48 hrs by sulforhodamine B assay relative to control; type: functional; settings: read-out: Activity
[9] = tested on: NCI-H23; experiment: Cytotoxicity against human NCI-H23 cells assessed as cell growth at 100 uM after 48 hrs by sulforhodamine B assay relative to control; type: functional; settings: NCI-H23, 48 h, read-out: Activity
[10] = tested on: RXF 393; experiment: Cytotoxicity against human RXF393 cells assessed as cell growth at 10 uM after 48 hrs by sulforhodamine B assay relative to control; type: functional; settings: RXF 393, 48 h, read-out: Activity
[11] = tested on: HOP-62; experiment: Cytotoxicity against human HOP62 cells assessed as cell growth at 1 uM after 48 hrs by sulforhodamine B assay relative to control; type: functional; settings: HOP-62, 48 h, read-out: Activity
[12] = tested on: Hs-578T; experiment: Cytotoxicity against human Hs 578T cells assessed as cell growth at 0.1 uM after 48 hrs by sulforhodamine B assay relative to control; type: functional; settings: read-out: Activity
[13] = tested on: SK-MEL-28; experiment: Cytotoxicity against human SK-MEL-28 cells assessed as cell growth at 1 uM after 48 hrs by sulforhodamine B assay relative to control; type: functional; settings: SK-MEL-28, 48 h, read-out: Activity
[14] = tested on: HL-60(TB); experiment: Cytotoxicity against human HL-60(TB) cells assessed as cell growth at 0.1 uM after 48 hrs by sulforhodamine B assay relative to control; type: functional; settings: HL-60, 48 h, read-out: Activity
[15] = tested on: DU-145; experiment: Cytotoxicity against human DU145 cells assessed as cell growth at 0.1 uM after 48 hrs by sulforhodamine B assay relative to control; type: functional; settings: DU-145, 48 h, read-out: Activity
[16] = tested on: SR; experiment: Cytotoxicity against human SR cells assessed as cell growth at 10 uM after 48 hrs by sulforhodamine B assay relative to control; type: functional; settings: read-out: Activity
[17] = tested on: NCI-H522; experiment: Cytotoxicity against human NCI-H522 cells assessed as cell growth at 100 uM after 48 hrs by sulforhodamine B assay relative to control; type: functional; settings: NCI-H522, 48 h, read-out: Activity
[18] = tested on: M14; experiment: Cytotoxicity against human M14 cells assessed as cell growth at 100 uM after 48 hrs by sulforhodamine B assay relative to control; type: functional; settings: M14, 48 h, read-out: Activity
[19] = tested on: 786-0; experiment: Cytotoxicity against human 786-0 cells assessed as cell growth at 0.01 uM after 48 hrs by sulforhodamine B assay relative to control; type: functional; settings: 786-0, 48 h, read-out: Activity
[20] = tested on: BT-549; experiment: Cytotoxicity against human BT549 cells assessed as growth inhibition after 48 hrs by sulforhodamine B assay; type: functional; settings: BT-549, 48 h
[21] = tested on: ACHN; experiment: Cytotoxicity against human ACHN cells assessed as growth inhibition after 48 hrs by sulforhodamine B assay; type: functional
[22] = tested on: M14; experiment: Cytotoxicity against human M14 cells assessed as cell growth at 1 uM after 48 hrs by sulforhodamine B assay relative to control; type: functional; settings: M14, 48 h, read-out: Activity
[23] = tested on: RPMI-8226; experiment: Cytotoxicity against human RPMI8226 cells assessed as cell growth at 100 uM after 48 hrs by sulforhodamine B assay relative to control; type: functional; settings: RPMI-8226, 48 h, read-out: Activity
[24] = tested on: SW-620; experiment: Cytotoxicity against human SW620 cells assessed as cell growth at 100 uM after 48 hrs by sulforhodamine B assay relative to control; type: functional; settings: SW-620, 48 h, read-out: Activity
[25] = tested on: HT-29; experiment: Cytotoxicity against human HT-29 cells assessed as growth inhibition after 48 hrs by sulforhodamine B assay; type: functional; settings: HT-29, 48 h
[26] = tested on: Malme-3M; experiment: Cytotoxicity against human MALME-3M cells assessed as growth inhibition after 48 hrs by sulforhodamine B assay; type: functional
[27] = tested on: NCI/ADR-RES; experiment: Cytotoxicity against human NCI/ADR-RES cells assessed as cell growth at 0.1 uM after 48 hrs by sulforhodamine B assay relative to control; type: functional; settings: read-out: Activity
[28] = tested on: MDA-MB-231; experiment: Cytotoxicity against human MDA-MB-231 cells assessed as growth inhibition after 48 hrs by MTT assay; type: functional, cell-based; settings: MDA-MB-231, 48 h
[29] = tested on: IGROV-1; experiment: Cytotoxicity against human IGROV1 cells assessed as cell growth at 100 uM after 48 hrs by sulforhodamine B assay relative to control; type: functional; settings: IGROV-1, 48 h, read-out: Activity
[30] = tested on: OVCAR-5; experiment: Cytotoxicity against human OVCAR5 cells assessed as growth inhibition after 48 hrs by sulforhodamine B assay; type: functional; settings: OVCAR-5, 48 h
[31] = tested on: UACC-257; experiment: Cytotoxicity against human UACC257 cells assessed as growth inhibition after 48 hrs by sulforhodamine B assay; type: functional; settings: UACC-257, 48 h
[32] = tested on: HT-29; experiment: Cytotoxicity against human HT-29 cells assessed as cell growth at 1 uM after 48 hrs by sulforhodamine B assay relative to control; type: functional; settings: HT-29, 48 h, read-out: Activity
[33] = tested on: U-251; experiment: Cytotoxicity against human U251 cells assessed as cell growth at 0.1 uM after 48 hrs by sulforhodamine B assay relative to control; type: functional; settings: U-251, 48 h, read-out: Activity
[34] = tested on: NCI-H522; experiment: Cytotoxicity against human NCI-H522 cells assessed as cell growth at 10 uM after 48 hrs by sulforhodamine B assay relative to control; type: functional; settings: NCI-H522, 48 h, read-out: Activity
[35] = tested on: NCI-H226; experiment: Cytotoxicity against human NCI-H226 cells assessed as cell growth at 0.01 uM after 48 hrs by sulforhodamine B assay relative to control; type: functional; settings: NCI-H226, 48 h, read-out: Activity
[36] = tested on: CCRF-CEM; experiment: Cytotoxicity against human CCRF-CEM cells assessed as cell growth at 1 uM after 48 hrs by sulforhodamine B assay relative to control; type: functional; settings: read-out: Activity

COc1cc(-c2cc(/C=C/C(=O)c3ccc(N)cc3)[nH]n2)cc(OC)c1OC
GI50 [1]: 320 nM | TGI [1]: 2.75 µM | CC50 [1]: > 100 µM | growth at 100 µM [2]: -12% | growth at 100 µM [3]: -90% | GI50 [4]: 1300 nM | LC50 (concentration killing 50% of cells) [4]: 5.42 µM | TGI [4]: 2660 nM | GI50 [5]: 2850 nM | LC50 (concentration killing 50% of cells) [5]: 31.9 µM | TGI [5]: 7.53 µM | growth at 0.1 µM [6]: 101% | growth at 0.01 µM [7]: 85% | growth at 0.01 µM [8]: 98% | growth at 100 µM [9]: -55% | growth at 10 µM [10]: -64% | growth at 1 µM [11]: 86% | growth at 0.1 µM [12]: 88% | growth at 1 µM [13]: 90% | growth at 0.1 µM [14]: 99% | growth at 0.1 µM [15]: 104% | growth at 10 µM [16]: -18% | growth at 100 µM [17]: -83% | growth at 100 µM [18]: -78% | growth at 0.01 µM [19]: 92% | GI50 [20]: 1380 nM | LC50 (concentration killing 50% of cells) [20]: 5.76 µM | TGI [20]: 2820 nM | GI50 [21]: 1610 nM | LC50 [21]: 8.4 µM | TGI [21]: 3.67 µM | growth at 1 µM [22]: 90% | growth at 100 µM [23]: -40% | growth at 100 µM [24]: -40% | GI50 [25]: 1850 nM | LC50 [25]: > 100 µM | TGI [25]: 4.82 µM | GI50 [26]: 2050 nM | LC50 [26]: 14.4 µM | TGI [26]: 4.71 µM | growth at 0.1 µM [27]: 110% | IC50 [28]: 2000 nM | growth at 100 µM [29]: -49% | GI50 [30]: 1780 nM | LC50 [30]: 7.91 µM | TGI [30]: 3.75 µM | GI50 [31]: 1870 nM | LC50 [31]: 8.66 µM | TGI [31]: 4.02 µM | growth at 1 µM [32]: 82% | growth at 0.1 µM [33]: 94% | growth at 10 µM [34]: -51% | growth at 0.01 µM [35]: 92% | growth at 1 µM [36]: 36%

COc1cc2c(cc1OC)C(=O)/C(=C/c1cc(-c3ccc4c(c3)OCO4)n[nH]1)C2
GI50 [1]: 620 nM | TGI [1]: 4.11 µM | CC50 [1]: > 100 µM | growth at 100 µM [2]: -36% | growth at 100 µM [3]: -93% | GI50 [4]: 1270 nM | LC50 (concentration killing 50% of cells) [4]: 5.22 µM | TGI [4]: 2570 nM | growth at 0.1 µM [6]: 96% | growth at 0.01 µM [7]: 96% | growth at 0.01 µM [8]: 95% | growth at 100 µM [9]: -78% | growth at 10 µM [10]: -78% | growth at 1 µM [11]: 82% | growth at 0.1 µM [12]: 99% | growth at 1 µM [13]: 105% | growth at 0.1 µM [14]: 95% | growth at 0.1 µM [15]: 101% | growth at 10 µM [16]: -24% | growth at 100 µM [17]: -92% | growth at 100 µM [18]: -80% | growth at 0.01 µM [19]: 96% | GI50 [20]: 1620 nM | LC50 (concentration killing 50% of cells) [20]: 5.71 µM | TGI [20]: 3040 nM | GI50 [21]: 1730 nM | LC50 [21]: 6.04 µM | TGI [21]: 3.23 µM | growth at 1 µM [22]: 98% | growth at 100 µM [23]: -54% | growth at 100 µM [24]: -71% | GI50 [25]: 1450 nM | LC50 [25]: 6.63 µM | TGI [25]: 3.09 µM | GI50 [26]: 1740 nM | LC50 [26]: 7.43 µM | TGI [26]: 3.6 µM | growth at 0.1 µM [27]: 100% | IC50 [28]: 1600 nM | growth at 100 µM [29]: -82% | GI50 [30]: 1560 nM | LC50 [30]: 5.79 µM | TGI [30]: 3 µM | GI50 [31]: 1710 nM | LC50 [31]: 5.72 µM | TGI [31]: 3.13 µM | growth at 1 µM [32]: 74% | growth at 0.1 µM [33]: 95% | growth at 10 µM [34]: -80% | growth at 0.01 µM [35]: 97% | growth at 1 µM [36]: 55%

From ChEMBL document CHEMBL4138123, “Design, synthesis and biological evaluation of novel pyrazolochalcones as potential modulators of PI3K/Akt/mTOR pathway and inducers of apoptosis in breast cancer cells” (Eur J Med Chem, 2017)
